Calls of active or inactive are those of the source. The rule behind the calls is not given here.
How the values were obtained:
U-937 = experiment: Antiproliferative activity against human U937 cells after 24 hrs by MTT assay; assay type: functional
[1] = target: RAC-alpha serine/threonine-protein kinase (Homo sapiens) (UniProt P31749); experiment: Inhibition of AKT1 (unknown origin) at 10 uM after 40 mins by scintillation counting analysis
[2] = target: ALK tyrosine kinase receptor (Homo sapiens) (UniProt Q9UM73); experiment: Inhibition of ALK (unknown origin) at 10 uM after 40 mins by scintillation counting analysis
[3] = target: Aurora kinase A (Homo sapiens) (UniProt O14965); experiment: Inhibition of Aurora A (unknown origin) at 10 uM after 40 mins by scintillation counting analysis
Aurora kinase A (Homo sapiens), sequence (O14965 whole entry): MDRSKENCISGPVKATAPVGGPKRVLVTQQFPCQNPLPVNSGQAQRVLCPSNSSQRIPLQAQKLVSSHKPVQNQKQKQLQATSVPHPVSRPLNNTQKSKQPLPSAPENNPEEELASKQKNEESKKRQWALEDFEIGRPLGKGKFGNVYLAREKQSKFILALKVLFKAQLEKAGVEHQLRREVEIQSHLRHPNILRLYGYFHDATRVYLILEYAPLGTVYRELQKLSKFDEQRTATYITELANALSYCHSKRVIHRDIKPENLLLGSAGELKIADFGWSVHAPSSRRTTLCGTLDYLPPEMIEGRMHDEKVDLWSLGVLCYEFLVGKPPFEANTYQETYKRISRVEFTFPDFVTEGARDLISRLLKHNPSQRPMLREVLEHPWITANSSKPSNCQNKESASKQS

[4] = target: Mast/stem cell growth factor receptor Kit (Homo sapiens) (UniProt P10721); experiment: Inhibition of c-Kit (unknown origin) at 10 uM after 40 mins by scintillation counting analysis
[5] = target: Hepatocyte growth factor receptor (Homo sapiens) (UniProt P08581); experiment: Inhibition of c-MET (unknown origin) at 10 uM after 40 mins by scintillation counting analysis
Hepatocyte growth factor receptor (Homo sapiens), sequence (P08581 whole entry): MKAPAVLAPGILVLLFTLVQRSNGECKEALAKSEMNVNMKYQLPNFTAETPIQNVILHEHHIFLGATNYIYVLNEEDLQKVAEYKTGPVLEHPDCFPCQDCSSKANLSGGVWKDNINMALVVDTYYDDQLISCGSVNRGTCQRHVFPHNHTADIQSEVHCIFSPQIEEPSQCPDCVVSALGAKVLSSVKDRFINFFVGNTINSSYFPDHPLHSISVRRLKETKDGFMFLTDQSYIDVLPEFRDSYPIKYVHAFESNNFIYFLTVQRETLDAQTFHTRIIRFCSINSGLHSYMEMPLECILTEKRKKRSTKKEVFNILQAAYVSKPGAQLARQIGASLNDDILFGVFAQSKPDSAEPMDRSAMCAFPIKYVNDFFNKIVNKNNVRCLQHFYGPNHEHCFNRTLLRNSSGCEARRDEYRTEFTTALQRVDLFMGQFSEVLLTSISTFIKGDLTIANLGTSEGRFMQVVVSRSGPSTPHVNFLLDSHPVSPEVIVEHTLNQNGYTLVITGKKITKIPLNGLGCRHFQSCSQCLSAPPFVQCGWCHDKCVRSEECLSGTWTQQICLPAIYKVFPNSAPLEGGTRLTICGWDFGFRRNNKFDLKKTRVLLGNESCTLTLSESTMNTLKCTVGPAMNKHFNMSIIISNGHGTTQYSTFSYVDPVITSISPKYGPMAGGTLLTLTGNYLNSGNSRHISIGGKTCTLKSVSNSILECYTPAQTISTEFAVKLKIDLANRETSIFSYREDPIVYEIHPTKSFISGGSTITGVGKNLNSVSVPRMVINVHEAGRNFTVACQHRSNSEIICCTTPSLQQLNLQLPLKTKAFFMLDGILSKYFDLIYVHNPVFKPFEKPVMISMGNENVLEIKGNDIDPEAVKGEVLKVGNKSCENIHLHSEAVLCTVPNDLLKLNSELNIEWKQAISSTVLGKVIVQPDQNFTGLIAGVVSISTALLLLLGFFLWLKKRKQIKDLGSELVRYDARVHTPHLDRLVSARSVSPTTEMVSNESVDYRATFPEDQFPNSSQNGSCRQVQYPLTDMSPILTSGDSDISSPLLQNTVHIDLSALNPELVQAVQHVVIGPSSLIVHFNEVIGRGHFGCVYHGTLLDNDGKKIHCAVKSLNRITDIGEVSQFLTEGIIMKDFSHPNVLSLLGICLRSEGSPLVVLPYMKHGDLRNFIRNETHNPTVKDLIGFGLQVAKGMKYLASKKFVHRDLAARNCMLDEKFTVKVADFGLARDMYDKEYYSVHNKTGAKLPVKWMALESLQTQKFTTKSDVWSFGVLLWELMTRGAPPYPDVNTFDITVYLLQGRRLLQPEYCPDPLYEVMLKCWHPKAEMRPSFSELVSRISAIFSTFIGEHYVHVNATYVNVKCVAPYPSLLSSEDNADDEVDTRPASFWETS

[6] = target: Cyclin-dependent kinase 1/cyclin B (Homo sapiens) (UniProt P06493+P14635+Q8WWL7+O95067); experiment: Inhibition of CDK1/cyclin B (unknown origin) at 10 uM after 40 mins by scintillation counting analysis; assay type: protein-complex assay
[7] = target: Cyclin-dependent kinase 2/cyclin E (Homo sapiens) (UniProt P24864+P24941+O96020); experiment: Inhibition of CDK2/cyclin E (unknown origin) at 10 uM after 40 mins by scintillation counting analysis; assay type: protein-complex assay
[8] = target: Epidermal growth factor receptor (Homo sapiens) (UniProt P00533); experiment: Inhibition of EGFR (unknown origin) at 10 uM after 40 mins by scintillation counting analysis
[9] = target: Focal adhesion kinase 1 (Homo sapiens) (UniProt Q05397); experiment: Inhibition of FAK (unknown origin) at 10 uM after 40 mins by scintillation counting analysis
[10] = target: Fibroblast growth factor receptor 2 (Homo sapiens) (UniProt P21802); experiment: Inhibition of FGFR2 (unknown origin) at 10 uM after 40 mins by scintillation counting analysis
[11] = target: Receptor-type tyrosine-protein kinase FLT3 (Homo sapiens) (UniProt P36888); experiment: Inhibition of FLT3 (unknown origin) at 10 uM after 40 mins by scintillation counting analysis
[12] = target: T1, Macrophage colony-stimulating factor 1 receptor (Homo sapiens, UniProt P07333); experiment: Inhibition of FMS (unknown origin) at 10 uM after 40 mins by scintillation counting analysis
T1 sequence (P07333 whole entry): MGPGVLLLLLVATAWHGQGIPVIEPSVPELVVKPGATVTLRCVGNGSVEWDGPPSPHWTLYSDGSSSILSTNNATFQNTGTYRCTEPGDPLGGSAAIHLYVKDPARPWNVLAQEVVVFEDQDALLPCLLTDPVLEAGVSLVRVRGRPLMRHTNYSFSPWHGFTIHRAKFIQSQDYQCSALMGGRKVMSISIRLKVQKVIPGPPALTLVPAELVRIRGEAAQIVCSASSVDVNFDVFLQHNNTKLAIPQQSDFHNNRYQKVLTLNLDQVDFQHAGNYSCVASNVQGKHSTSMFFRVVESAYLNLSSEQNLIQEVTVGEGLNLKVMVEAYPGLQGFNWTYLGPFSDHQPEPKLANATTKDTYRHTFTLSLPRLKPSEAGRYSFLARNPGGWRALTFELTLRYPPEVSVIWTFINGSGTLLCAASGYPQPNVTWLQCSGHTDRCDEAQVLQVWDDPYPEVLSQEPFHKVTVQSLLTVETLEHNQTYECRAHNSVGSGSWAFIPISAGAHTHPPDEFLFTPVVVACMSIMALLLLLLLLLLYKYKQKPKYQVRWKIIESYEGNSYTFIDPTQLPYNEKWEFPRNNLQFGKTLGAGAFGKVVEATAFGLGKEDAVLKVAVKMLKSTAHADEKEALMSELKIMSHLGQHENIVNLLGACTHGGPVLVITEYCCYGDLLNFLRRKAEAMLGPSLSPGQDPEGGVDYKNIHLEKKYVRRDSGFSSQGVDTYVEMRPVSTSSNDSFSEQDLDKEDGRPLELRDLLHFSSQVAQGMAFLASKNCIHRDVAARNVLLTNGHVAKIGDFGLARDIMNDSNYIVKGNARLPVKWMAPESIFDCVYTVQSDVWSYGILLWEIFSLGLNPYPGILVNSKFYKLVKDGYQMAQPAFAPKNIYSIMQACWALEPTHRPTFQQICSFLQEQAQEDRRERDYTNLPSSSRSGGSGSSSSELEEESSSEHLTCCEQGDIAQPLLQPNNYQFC

[13] = target: Glycogen synthase kinase-3 beta (Homo sapiens) (UniProt P49841); experiment: Inhibition of GSK3b (unknown origin) at 10 uM after 40 mins by scintillation counting analysis
[14] = target: Insulin-like growth factor 1 receptor (Homo sapiens) (UniProt P08069); experiment: Inhibition of IGF1R (unknown origin) at 10 uM after 40 mins by scintillation counting analysis
[15] = target: Tyrosine-protein kinase JAK3 (Homo sapiens) (UniProt P52333); experiment: Inhibition of Jak3 (unknown origin) at 10 uM after 40 mins by scintillation counting analysis
[16] = target: Tyrosine-protein kinase Lyn (Homo sapiens, UniProt P07948); experiment: Inhibition of Lyn (unknown origin) at 10 uM after 40 mins by scintillation counting analysis
[17] = target: Dual specificity mitogen-activated protein kinase kinase 1 (Homo sapiens) (UniProt Q02750); experiment: Inhibition of MEK1 (unknown origin) at 10 uM after 40 mins by scintillation counting analysis
[18] = target: Serine/threonine-protein kinase mTOR (Homo sapiens, UniProt P42345); experiment: Inhibition of mTOR (unknown origin) at 10 uM after 40 mins by scintillation counting analysis
[19] = target: cAMP-dependent protein kinase (PKA) (Homo sapiens) (UniProt P22694+P17612+P22612); experiment: Inhibition of PKA (unknown origin) at 10 uM after 40 mins by scintillation counting analysis; assay type: protein assay
[20] = target: Serine/threonine-protein kinase PLK1 (Homo sapiens) (UniProt P53350); experiment: Inhibition of PLK1 (unknown origin) at 10 uM after 40 mins by scintillation counting analysis
[21] = target: Macrophage-stimulating protein receptor (Homo sapiens) (UniProt Q04912); experiment: Inhibition of RON (unknown origin) at 10 uM after 40 mins by scintillation counting analysis
[22] = target: Proto-oncogene tyrosine-protein kinase ROS (Homo sapiens) (UniProt P08922); experiment: Inhibition of ROS1 (unknown origin) at 10 uM after 40 mins by scintillation counting analysis
[23] = target: Tyrosine-protein kinase SYK (Homo sapiens) (UniProt P43405); experiment: Inhibition of SYK (unknown origin) at 10 uM after 40 mins by scintillation counting analysis
[24] = target: T1, Macrophage colony-stimulating factor 1 receptor; experiment: Inhibition of FMS (unknown origin) after 40 mins by scintillation counting analysis
[25] = target: Mitogen-activated protein kinase 8 (Homo sapiens) (UniProt P45983); experiment: Inhibition of JNK1 (unknown origin) at 10 uM after 40 mins by scintillation counting analysis
[26] = target: Tyrosine-protein kinase ABL1 (Homo sapiens) (UniProt P00519); experiment: Inhibition of ABL1 (unknown origin) at 10 uM after 40 mins by scintillation counting analysis
[27] = target: Tyrosine-protein kinase HCK (Homo sapiens) (UniProt P08631); experiment: Inhibition of HCK (unknown origin) at 10 uM after 40 mins by scintillation counting analysis
Tyrosine-protein kinase HCK (Homo sapiens), sequence (P08631 2-526 limits assumed): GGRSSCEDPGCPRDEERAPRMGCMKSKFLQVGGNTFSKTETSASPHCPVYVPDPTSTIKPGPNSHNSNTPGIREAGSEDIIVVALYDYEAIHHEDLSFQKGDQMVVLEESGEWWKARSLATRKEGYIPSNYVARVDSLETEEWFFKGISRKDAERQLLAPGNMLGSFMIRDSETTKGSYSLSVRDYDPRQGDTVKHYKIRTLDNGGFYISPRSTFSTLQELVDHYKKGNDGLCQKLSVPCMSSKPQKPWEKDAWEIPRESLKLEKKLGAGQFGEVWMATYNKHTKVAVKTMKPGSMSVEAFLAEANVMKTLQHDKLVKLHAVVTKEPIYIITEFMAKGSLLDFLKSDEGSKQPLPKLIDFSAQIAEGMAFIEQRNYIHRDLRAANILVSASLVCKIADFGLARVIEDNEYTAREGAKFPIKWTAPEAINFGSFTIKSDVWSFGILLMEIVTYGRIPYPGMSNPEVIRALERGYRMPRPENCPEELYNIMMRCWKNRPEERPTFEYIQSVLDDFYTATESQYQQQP

[28] = target: Tyrosine-protein kinase Lck (Homo sapiens) (UniProt P06239); experiment: Inhibition of LCK (unknown origin) at 10 uM after 40 mins by scintillation counting analysis
[29] = target: Tyrosine-protein kinase JAK1 (Homo sapiens) (UniProt P23458); experiment: Inhibition of JAK1 (unknown origin) at 10 uM after 40 mins by scintillation counting analysis
Tyrosine-protein kinase JAK1 (Homo sapiens), sequence (P23458 whole entry): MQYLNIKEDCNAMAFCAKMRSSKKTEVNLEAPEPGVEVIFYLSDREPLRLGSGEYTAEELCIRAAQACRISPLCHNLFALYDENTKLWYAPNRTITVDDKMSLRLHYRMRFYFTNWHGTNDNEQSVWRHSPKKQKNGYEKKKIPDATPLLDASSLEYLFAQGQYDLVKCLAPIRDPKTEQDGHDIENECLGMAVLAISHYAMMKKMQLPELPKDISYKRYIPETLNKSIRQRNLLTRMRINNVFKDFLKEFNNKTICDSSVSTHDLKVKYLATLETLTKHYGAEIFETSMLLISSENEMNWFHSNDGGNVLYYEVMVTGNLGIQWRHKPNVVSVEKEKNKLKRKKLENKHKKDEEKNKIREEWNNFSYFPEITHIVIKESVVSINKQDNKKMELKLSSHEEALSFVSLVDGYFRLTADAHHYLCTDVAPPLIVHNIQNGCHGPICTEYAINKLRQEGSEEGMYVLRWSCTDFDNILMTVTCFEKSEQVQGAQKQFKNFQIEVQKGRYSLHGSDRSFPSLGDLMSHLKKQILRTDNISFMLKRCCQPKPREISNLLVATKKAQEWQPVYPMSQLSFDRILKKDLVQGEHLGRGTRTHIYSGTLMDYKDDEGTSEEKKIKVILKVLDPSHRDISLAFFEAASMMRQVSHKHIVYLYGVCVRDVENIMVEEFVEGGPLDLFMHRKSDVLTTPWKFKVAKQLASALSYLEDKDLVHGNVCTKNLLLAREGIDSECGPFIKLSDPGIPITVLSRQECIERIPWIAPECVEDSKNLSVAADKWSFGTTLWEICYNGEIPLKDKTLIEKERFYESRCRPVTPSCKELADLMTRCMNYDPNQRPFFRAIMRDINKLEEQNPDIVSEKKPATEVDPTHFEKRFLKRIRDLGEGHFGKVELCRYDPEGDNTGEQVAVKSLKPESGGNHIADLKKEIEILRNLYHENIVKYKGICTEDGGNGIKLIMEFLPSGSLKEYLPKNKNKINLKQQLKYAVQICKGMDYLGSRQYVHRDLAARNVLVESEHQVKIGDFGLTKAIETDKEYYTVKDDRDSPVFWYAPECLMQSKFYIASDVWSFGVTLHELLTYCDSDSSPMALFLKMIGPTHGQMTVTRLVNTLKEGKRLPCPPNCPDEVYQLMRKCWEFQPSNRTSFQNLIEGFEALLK

[30] = target: Vascular endothelial growth factor receptor 1 (Homo sapiens) (UniProt P17948); experiment: Inhibition of FLT1 (unknown origin) at 10 uM after 40 mins by scintillation counting analysis
[31] = target: Vascular endothelial growth factor receptor 3 (Homo sapiens) (UniProt P35916); experiment: Inhibition of FLT4 (unknown origin) at 10 uM after 40 mins by scintillation counting analysis
[32] = target: Protein kinase C (PKC) (Homo sapiens) (UniProt O94806+P41743+P17252+P05129+Q05655+P05771+Q05513+Q02156+P24723+Q15139+Q04759); experiment: Inhibition of PKC (unknown origin) at 10 uM after 40 mins by scintillation counting analysis
Homo sapiens = species: Homo sapiens; experiment: Inhibition of Pi3K (unknown origin) at 10 uM after 40 mins by scintillation counting analysis
[33] = target: Platelet-derived growth factor receptor alpha (Homo sapiens) (UniProt P16234); experiment: Inhibition of PDGFRalpha (unknown origin) at 10 uM after 40 mins by scintillation counting analysis
[34] = target: Platelet-derived growth factor receptor beta (Homo sapiens) (UniProt P09619); experiment: Inhibition of PDGFRbeta (unknown origin) at 10 uM after 40 mins by scintillation counting analysis

RAC-alpha serine/threonine-protein kinase (Homo sapiens), sequence (P31749 whole entry): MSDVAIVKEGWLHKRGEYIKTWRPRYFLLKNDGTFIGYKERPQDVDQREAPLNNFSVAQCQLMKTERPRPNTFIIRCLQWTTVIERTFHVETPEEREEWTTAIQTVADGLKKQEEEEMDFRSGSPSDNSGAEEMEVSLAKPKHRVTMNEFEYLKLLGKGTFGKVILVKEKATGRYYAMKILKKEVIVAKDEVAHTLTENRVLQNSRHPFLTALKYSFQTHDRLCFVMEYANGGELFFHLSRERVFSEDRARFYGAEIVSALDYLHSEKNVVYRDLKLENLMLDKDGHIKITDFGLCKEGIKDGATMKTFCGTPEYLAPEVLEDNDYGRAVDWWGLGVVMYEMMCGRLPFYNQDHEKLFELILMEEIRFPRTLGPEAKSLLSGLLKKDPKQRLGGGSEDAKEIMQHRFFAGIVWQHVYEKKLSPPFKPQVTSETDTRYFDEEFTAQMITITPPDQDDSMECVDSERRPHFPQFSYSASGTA

GI50 (U-937): Active
inhibition [1]: inactive
inhibition [2]: inactive
inhibition [3]: inactive
inhibition [4]: inactive
inhibition [5]: inactive
inhibition [6]: inactive
inhibition [7]: inactive
inhibition [8]: inactive
inhibition [9]: inactive
inhibition [10]: inactive
inhibition [11]: inactive
inhibition [12]: inactive
inhibition [13]: inactive
inhibition [14]: inactive
inhibition [15]: inactive
inhibition [16]: inactive
inhibition [17]: inactive
inhibition [18]: inactive
inhibition [19]: inactive
inhibition [20]: inactive
inhibition [21]: inactive
inhibition [22]: inactive
inhibition [23]: inactive
IC50 [24]: 216 nM
inhibition [25]: inactive
inhibition [26]: inactive
inhibition [27]: inactive
inhibition [28]: inactive
inhibition [29]: inactive
inhibition [30]: inactive
inhibition [31]: inactive
inhibition [32]: inactive
inhibition (Homo sapiens): inactive
inhibition [33]: inactive
inhibition [34]: inactive
Structure (SMILES): Cc1ccccc1C(=O)Nc1cnoc1C

— ChEMBL document CHEMBL3616395, “Discovery of 4-arylamido 3-methyl isoxazole derivatives as novel FMS kinase inhibitors” (Eur J Med Chem, 2015)
